Laboratory results published in patent US5541116A, “Method for the stabilization of endogenous, physiologically active peptides” (B.R.A.H.M.S. Diagnostica GmbH, priority 1991, dated 1996).
Like-named read-outs stand apart in the source and are kept apart here. Where a SMILES comes first, the peptide text is derived from it. [ ]: non-standard residue; d: D form. The star is where a group is joined. Sta = CC(C)C[C@H](N)[C@@H](O)CC(=O)O; Isovaleryl = CC(C)CC(=O)*

Columns and labels:
[1] = system: endogenous proteases which are active in human serum and plasma; experiment: Hydrolysis of 125I-ACTH 1-39 in human serum or EDTA plasma with protease inhibitors (RP-HPLC, radioactivity detection); type: biochemical
[2] = system: endogenous proteases which are active in human serum and plasma; experiment: Variation of inhibitor concentrations to find the minimum needed for adequate protection of the peptides; type: biochemical; conditions: in the presence of the other inhibitors; serum or plasma sample
Text: To determine the concentrations of the individual inhibitors which are required for adequate protection of the peptides, in the presence of the other inhibitors, the concentrations were repeatedly varied.

[3] = 125I-ACTH 1-39, inhibitor 100 μM, EDTA plasma, 22° C., 25 h
[4] = 125I-ACTH 1-39, inhibitor 100 μM, serum, 22° C., 18 h
[5] = 125I-ACTH 1-39, inhibitor 1 mM, EDTA plasma, 22° C., 25 h
[6] = 125I-ACTH 1-39, inhibitor 1 mM, serum, 22° C., 18 h

Question: Which “% of hydrolysis rate of the control, in EDTA plasma” value [1, 3] does the source give for `CC(C)C[C@@H](N)[C@H](O)C(=O)N[C@H](C(=O)N[C@H](C(=O)N[C@@H](CC(=O)O)C(=O)O)C(C)C)C(C)C` [Amastatin] here?
Answer: The value was 3%.

Question: And the “% of hydrolysis rate of the control, in serum” value (“% of hydrolysis rate … in serum” for short) [1, 4]?
Answer: Its value is 17%.

Question: Which results are given for `N=C(N)c1ccccc1` [Benzamidine]?
Answer: % of hydrolysis rate of the control, in EDTA plasma [1, 5]: 80%; % of hydrolysis rate of the control, in serum [1, 6]: 84%

Question: Which results are given for `CC(C)C[C@H](NC(=O)[C@@H](O)[C@H](N)Cc1ccccc1)C(=O)O` [Bestatin]?
Answer: % of hydrolysis rate of the control, in EDTA plasma [1, 5]: 27%; % of hydrolysis rate of the control, in serum [1, 6]: 44%

Question: With `CC(C)C[C@H](NC(=O)N[C@H](C(=O)N[C@@H](CCC(N)=O)C(=O)N[C@@H](C)C=O)[C@@H]1CCNC(=N)N1)C(=O)O` [Elastatinal] as the molecule, how does the “% of hydrolysis rate of the control, in EDTA plasma” value [1, 3] read?
Answer: The value was 100%.

Question: What about the “% of hydrolysis rate … in serum” value [1, 4] of the same molecule?
Answer: The value was 97%.

Question: How did the “% of hydrolysis rate of the control, in EDTA plasma” value [1] turn out when `CC(=O)N[C@@H](CC(C)C)C(=O)N[C@@H](CC(C)C)C(=O)N[C@H](C=O)CCCNC(=N)N` [Leupeptin] was run?
Answer: Its value is 27.

Question: And the “% of hydrolysis rate … in serum” value [1]?
Answer: The value was 41.

Question: What about the “minimum concentration present in the sample for effective protection” value [2] of the same molecule?
Answer: Its value is 50 µM.

Question: For `CCN1C(=O)C=CC1=O` [N-Ethylmaleimide], which “% of hydrolysis rate of the control, in EDTA plasma” value ([1]; 125I-ACTH 1-39, inhibitor 2 mM, EDTA plasma, 22° C., 25 h) is on record?
Answer: Its value is 54%.

Question: What about the “% of hydrolysis rate … in serum” value ([1]; 125I-ACTH 1-39, inhibitor 2 mM, serum, 22° C., 18 h) of the same molecule?
Answer: Its value is 48%.

Question: For `CC(C)CC(=O)N[C@H](C(=O)N[C@H](C(=O)N[C@@H](CC(C)C)[C@@H](O)CC(=O)N[C@@H](C)C(=O)N[C@@H](CC(C)C)[C@@H](O)CC(=O)O)C(C)C)C(C)C` [Pepstatin] (Isovaleryl-VV[Sta]A[Sta]-OH), which “% of hydrolysis rate of the control, in EDTA plasma” value [1, 3] is on record?
Answer: The value was 79%.

Question: And the “% of hydrolysis rate … in serum” value [1, 4]?
Answer: The value was 105%.

Question: Which “% of hydrolysis rate of the control, in EDTA plasma” value [1] does the source give for `O=S(=O)(F)Cc1ccccc1` [Phenylmethylsulphonyl fluoride] here?
Answer: The value was 100.

Question: And the “% of hydrolysis rate … in serum” value [1]?
Answer: The value was 97.

Question: With `CC(C)C[C@H](NP(=O)(O)O[C@@H]1O[C@@H](C)[C@H](O)[C@@H](O)[C@H]1O)C(=O)N[C@@H](Cc1c[nH]c2ccccc12)C(=O)O` [Phosphoramidone] as the molecule, how does the “% of hydrolysis rate of the control, in EDTA plasma” value [1, 5] read?
Answer: The value was 85%.

Question: What about the “% of hydrolysis rate … in serum” value [1, 6] of the same molecule?
Answer: The value was 98%.

Question: Which “% of hydrolysis rate of the control, in EDTA plasma” value [1] does the source give for `O=S(=O)(O)c1cc[c]([Hg][Cl])cc1` [p-Choloromercuryphenylsulphonic acid, p-Choloromercury-phenylsulphonic acid] here?
Answer: Its value is 62.

Question: And the “% of hydrolysis rate … in serum” value [1]?
Answer: Its value is 94.

Question: Which results are given for Antithrombin III?
Answer: % of hydrolysis rate of the control, in EDTA plasma ([1]; 125I-ACTH 1-39, inhibitor 0.1 unit/ml, EDTA plasma, 22° C., 25 h): 79%; % of hydrolysis rate of the control, in serum ([1]; 125I-ACTH 1-39, inhibitor 0.1 unit/ml, serum, 22° C., 18 h): 107%

Question: For Heparin, which “% of hydrolysis rate of the control, in EDTA plasma” value ([1]; 125I-ACTH 1-39, inhibitor 5 mg/ml, EDTA plasma, 22° C., 25 h) is on record?
Answer: The value was 103%.

Question: And the “% of hydrolysis rate … in serum” value ([1]; 125I-ACTH 1-39, inhibitor 5 mg/ml, serum, 22° C., 18 h)?
Answer: The value was 126%.

B1: Trypsin inhibitor (soybean): soybean trypsin inhibitor (Sigma T-900) (protein, UniProt P01070 25-205, looked up)
Trypsin inhibitor A: DFVLDNEGNPLENGGTYYILSDITAFGGIRAAPTGNERCPLTVVQSRNELDKGIGTIISSPYRIRFIAEGHPLSLKFDSFAVIMLCVGIPTEWSVVEDLPEGPAVKIGENKDAMDGWFRLERVSDDEFNNYKLVFCPQQAEDDKCGDIGISIDHDDGTRRLVVSKNKPLVVQFQKLDKESL
Question: What does the source list for B1?
Answer: % of hydrolysis rate of the control, in EDTA plasma ([1]; 125I-ACTH 1-39, inhibitor 0.1 mg/ml, EDTA plasma, 22° C., 25 h): 71%; % of hydrolysis rate of the control, in serum ([1]; 125I-ACTH 1-39, inhibitor 0.1 mg/ml, serum, 22° C., 18 h): 78%
